Test results: paper PMC9889419 (Pharmacological Reports, 2022)
Counter-ions that a name gives are not always drawn. Like-named read-outs stand apart in the source and are kept apart here. Marks after values point to notes of the source that are not given here.

Tests used:
mice [1] = assay: Rotarod test (neurotoxicity); type: in vivo; settings: ip, […];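 also: in vivo neurotoxicity screen run within the NIH Epilepsy Therapy Screening Program (ETSP, formerly Anticonvulsant Screening Program)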
Procedure: (§1) The assays were carried out within the Epilepsy Therapy Screening Program (ETSP, previously known as the Anticonvulsant Screening Program, ASP), Epilepsy Branch, National Institute of Neurological and Communicative Disorders and Stroke, National Institutes of Health in Rockville, MD, USA [23].
(§2) The obtained compounds were screened for antiseizure activity and neurotoxicity in vivo within the Epilepsy Therapy Screening Program (ETSP, previously known as the Anticonvulsant Screening Program, ASP), Epilepsy Branch, National Institute of Neurological and Communicative Disorders and Stroke, National Institutes of Health in Rockville, MD, USA [23].

hERG = target: T1, hERG (Homo sapiens, UniProt Q12809); assay: Radioligand binding; settings: read-out: % of control specific binding
T1 construct: purchased Eurofins CEREP
Procedure: Radioligand binding. Radioligand binding assays were performed at Eurofins CEREP (France). The results are expressed as a percent of control specific binding (measured specific binding*100/control specific binding) and as a percent inhibition of control specific binding (100-(measured specific binding*100)/control specific binding) obtained in the presence of the test compounds. The IC50 values (concentration causing a half-maximal inhibition of control specific binding) and Hill coefficients (nH) were determined by non-linear regression analysis of the competition curves generated with mean replicate values using Hill equation curve fitting (Y = D + [A-D]/[1 + (C/C50)^nH], where Y = specific binding, A = left asymptote of the curve, D = right asymptote of the curve, C = compound concentration, C50 = IC50, and nH = slope factor). […] The inhibition constants (Ki) were calculated using the Cheng Prusoff equation (Ki = IC50/[1 + L/KD], where L = concentration of radioligand in the assay, and KD = affinity of the radioligand for the receptor).

[2] = Rotarod test (neurotoxicity); type: in vivo, mice; settings: mouse, in vivo; mice, ip, 0.25 h;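 also: in vivo neurotoxicity screen run within the NIH Epilepsy Therapy Screening Program (ETSP, formerly Anticonvulsant Screening Program)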
Procedure: as §1, §2

mice [3] = assay: Writhing test; type: in vivo; settings: 30 mg/kg
Procedure: Inflammatory acute pain—writhing test. In this test, mice were placed individually into glass beakers and were allowed to habituate for the next 30 min. Then, each mouse was injected with tested compound, dissolved in saline (at a dose 30 mg/kg) or vehicle, and then placed back into the glass beaker for 30 min. To induce inflammatory pain, 0.9% acetic acid solution (Polskie Odczynniki Chemiczne, Poland) prepared in saline was injected by the intraperitoneal route. Mice were placed in the beakers again and were observed continuously for the next 30 min. Stereotypical writhes (lengthwise constrictions of the torso with a concomitant concave arching of the back) were counted over this period in drug-treated and control mice.

guinea pigs = assay: Infiltration anesthesia (intradermal wheal test); type: in vivo
Procedure: A painful reaction to a prick of the skin at the centre of the wheal three times and every 5 s with 5 min intervals during the first 30 min of observation was tested. The experiment was continued to achieve a return of a reaction to the prick. The control wheal was done by an intradermal injection of 0.1 mL of 0.9% NaCl [25]. Local anesthesia was determined by calculating the ratio of the number of positive responses (no flinch) to the number of negative responses (flinch).

Acute toxicity (LD50) = settings: in vivo; for LD50 at 24 h: iv; for LD50 at 72 h: po
Procedure: Acute toxicity. The tested compounds were dissolved in 0.9% saline and administered po and injected into the caudal vein (iv) of mouse or rats at the constant volume of 10 mL/kg and 1 mL/kg, respectively. Each dose was given to six animals.

MTT assay = type: cell-based, murine; settings: mouse, astrocyte cell line (ATCC CRL-2541); 250 µM; read-out: cell viability compared to control
Procedure: Cells were seeded at a density of 1 × 10^4 cells per well in 96 well plates. […] Next, Crystal Dissolving Solution (Cayman) was added to each well.

murine astrocytes = assay: Crystal violet (CV) assay; type: cell-based
Procedure: CV assay. Cells were seeded at a density of 1 × 10^4 cells per well in 96-well plates.

Tissue distribution = type: in vivo, rats; settings: for t0.5λz / Cmax / MRT / Tmax / Kp / k el: 5 mg/kg iv; for Kp: read-out: Kp (tissue-to-plasma AUC ratio); for k el: read-out: λz (converted)
Procedure: Pharmacokinetic study design. Male Wistar rats (250–300 g) bred in-house from progenitors obtained from Charles River Laboratories (Sulzfed, Germany) were used in this study. […] Moreover, this compound dissolved in the same solvent was administered orally (po) by oral gavage at two doses (50 and 100 mg/kg) (n = 4). Blood samples were collected from the catheter at various time points up to 5 h. […] The animals were anaesthetized (50/7.5 mg/kg ketamine/xylazine, ip) and sacrificed by decapitation at 5, 15, 30, 60, 120, 180, and 300 min after compound administration (n = 4 per time point). Blood was collected into heparinized tubes and organs such as liver, brain, lungs, kidneys, and heart were harvested. The blood samples were centrifuged at 4000 rpm for 10 min (EBA 12R, Hettich, Germany). Plasma and organs were stored at − 80 °C until analysis.
Before analysis, tissue samples were homogenized in phosphate-buffered saline, pH 7.4 (1:4, w/v) with a tissue homogenizer (TH220; Omni International, Inc., Warrenton, VA, USA). Plasma (100 μL) or homogenate samples (500 μL) were mixed with an internal standard (IS) solution (R-( +)-propranolol, 4 μg/mL in methanol). Then, 20 μL of sodium carbonate (0.125 M) was added to each tube and the samples were extracted with 3 mL of diethyl ether by vortexing for 1 min. After centrifugation (3000 rpm, 15 min), the organic phase was transferred to a new tube and evaporated to dryness under a gentle stream nitrogen at 37 °C in a water bath. The dry residue was reconstituted in 100 μL of acetonitrile. Subsequently, 50 μL of 0.2 M borate buffer (pH = 7.0) and 50 μL of 6 mM FMOC-Cl solution in acetonitrile were added. […] The reaction was stopped by the addition of 0.1 M solution of glycine in water (30 μL) and vortexing for 1 min. The reaction mixture was transferred directly into the autosampler vials. The chromatographic system (Merck-HITACHI, Japan) consisted of an L-2485 spectrofluorimetric detector operating at the excitation and emission wavelengths of 267 and 316 nm, respectively, an L-2130 pump, an L-2350 column oven, and an L-2200 autosampler. The EZChrom Elite Client/Server version 3.2 (Agilent Technologies Inc.) was used for data acquisition and processing. […] The column temperature was maintained at 50 °C. The mobile phase consisted of a mixture of acetonitrile and water (67:33, v/v), and pumped at a flow rate of 1 mL/min.
Pharmacokinetic data analysis. Plasma and tissue concentration versus time profiles were analyzed by the non-compartmental approach in Phoenix WinNonlin v. 6.3 software (Pharsight Corporation, Mountain View, CA, USA). The peak concentration (Cmax) and the time to reach Cmax (tmax) were obtained directly from individual concentration–time profiles. The initial concentration (C0) after an iv dosing was obtained by extrapolation to zero time. The linear trapezoidal rule was applied to calculate the areas under the concentration–time curve (AUC) from the time of dosing to the last measured data point (AUC0-t) or infinity (AUC0-∞). The terminal slope (λz) was estimated by linear regression and the terminal half-life (t0.5λz) was calculated as ln2/λz. The volume of distribution based on the terminal phase (Vz) was calculated as: Dose/(λz ∙ AUC0-∞), whereas clearance (CL) was obtained from the following equation: Dose/AUC0-∞. The mean residence time (MRT) was defined as: AUMC0-∞/AUC0-∞, where AUMC is the area under the first moment curve. The absolute bioavailability (Fa) was calculated according to the equation: (AUCpo./Dosepo)/(AUCiv/Doseiv).

hNav1.2 sodium channel = target: T2, hNav1.2 sodium channel (Homo sapiens, UniProt Q99250); assay: Nav channel electrophysiology (IonWorks Quattro); type: cell-based
T2 construct: host or cells: CHO cells

hNav1.4 sodium channel = target: T3, hNav1.4 sodium channel (Homo sapiens, UniProt P35499); assay: Nav channel electrophysiology (IonWorks Quattro); type: cell-based
T3 construct: host or cells: CHO cells

hNav1.6 sodium channel = target: T4, hNav1.6 sodium channel (Homo sapiens, UniProt Q9UQD0); assay: Nav channel electrophysiology (IonWorks Quattro); type: cell-based
T4 construct: host or cells: CHO cells
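For Cmax in this document: organ homogenates in PBS analysed by HPLC after FMOC-Cl derivatization, non-compartmental analysis, Kp as tissue over plasma AUC, half-life taken as ln2 divided by λz.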
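For concentration in rat brain (approximated) in this document: organ homogenates in PBS analysed by HPLC after FMOC-Cl derivatization, non-compartmental analysis, Kp as tissue over plasma AUC, half-life taken as ln2 divided by λz.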
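For concentration in rat brain in this document: organ homogenates in PBS analysed by HPLC after FMOC-Cl derivatization, non-compartmental analysis, Kp as tissue over plasma AUC, half-life taken as ln2 divided by λz.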
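For t0.5λz in this document: organ homogenates in PBS analysed by HPLC after FMOC-Cl derivatization, non-compartmental analysis, Kp as tissue over plasma AUC, half-life taken as ln2 divided by λz.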

T3 sequence (P35499 whole entry): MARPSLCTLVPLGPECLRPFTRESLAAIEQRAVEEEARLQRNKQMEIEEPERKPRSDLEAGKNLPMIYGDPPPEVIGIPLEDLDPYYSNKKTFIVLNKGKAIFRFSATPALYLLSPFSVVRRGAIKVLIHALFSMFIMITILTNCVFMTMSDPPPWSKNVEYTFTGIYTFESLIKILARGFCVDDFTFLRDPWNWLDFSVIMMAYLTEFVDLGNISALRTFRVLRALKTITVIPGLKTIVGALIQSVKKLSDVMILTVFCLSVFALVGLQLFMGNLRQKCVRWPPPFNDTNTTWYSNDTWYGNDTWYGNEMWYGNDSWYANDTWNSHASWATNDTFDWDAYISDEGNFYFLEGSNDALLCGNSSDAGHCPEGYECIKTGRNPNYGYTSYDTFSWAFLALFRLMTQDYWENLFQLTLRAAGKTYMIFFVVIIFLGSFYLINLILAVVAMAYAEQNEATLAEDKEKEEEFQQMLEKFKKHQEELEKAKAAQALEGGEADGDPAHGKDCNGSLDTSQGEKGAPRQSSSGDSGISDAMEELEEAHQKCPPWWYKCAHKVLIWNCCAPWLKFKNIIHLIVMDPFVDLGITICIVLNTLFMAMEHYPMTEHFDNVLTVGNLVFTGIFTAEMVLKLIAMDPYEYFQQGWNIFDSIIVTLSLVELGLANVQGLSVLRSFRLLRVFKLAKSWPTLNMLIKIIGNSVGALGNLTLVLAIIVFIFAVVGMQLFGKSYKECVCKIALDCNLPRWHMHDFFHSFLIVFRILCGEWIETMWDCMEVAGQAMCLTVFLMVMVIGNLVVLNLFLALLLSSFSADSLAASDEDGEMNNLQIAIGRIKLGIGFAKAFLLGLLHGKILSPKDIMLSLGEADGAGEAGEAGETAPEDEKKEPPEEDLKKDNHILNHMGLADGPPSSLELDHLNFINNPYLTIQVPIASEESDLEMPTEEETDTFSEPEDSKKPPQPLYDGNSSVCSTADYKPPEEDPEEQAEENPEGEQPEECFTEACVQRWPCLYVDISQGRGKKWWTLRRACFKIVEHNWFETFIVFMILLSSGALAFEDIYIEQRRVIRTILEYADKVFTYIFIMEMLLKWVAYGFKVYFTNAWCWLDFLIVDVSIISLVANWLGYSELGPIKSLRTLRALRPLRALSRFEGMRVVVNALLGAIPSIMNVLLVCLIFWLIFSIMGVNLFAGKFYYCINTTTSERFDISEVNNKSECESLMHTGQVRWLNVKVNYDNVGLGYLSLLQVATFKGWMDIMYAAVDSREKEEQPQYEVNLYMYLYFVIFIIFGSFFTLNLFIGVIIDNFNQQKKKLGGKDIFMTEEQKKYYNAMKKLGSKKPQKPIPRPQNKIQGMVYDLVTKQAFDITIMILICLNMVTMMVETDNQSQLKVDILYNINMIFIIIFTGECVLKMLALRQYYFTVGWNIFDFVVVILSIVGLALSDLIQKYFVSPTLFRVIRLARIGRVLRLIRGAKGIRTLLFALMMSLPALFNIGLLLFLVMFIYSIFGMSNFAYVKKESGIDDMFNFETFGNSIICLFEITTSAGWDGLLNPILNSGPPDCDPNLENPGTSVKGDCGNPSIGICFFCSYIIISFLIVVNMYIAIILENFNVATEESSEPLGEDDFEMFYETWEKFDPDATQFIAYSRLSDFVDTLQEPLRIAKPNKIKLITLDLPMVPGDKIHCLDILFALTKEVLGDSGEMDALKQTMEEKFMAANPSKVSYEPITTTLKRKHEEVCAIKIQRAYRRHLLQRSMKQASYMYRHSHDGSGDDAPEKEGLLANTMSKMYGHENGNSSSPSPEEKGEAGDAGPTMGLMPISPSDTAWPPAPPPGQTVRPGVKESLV
T4 sequence (Q9UQD0 whole entry): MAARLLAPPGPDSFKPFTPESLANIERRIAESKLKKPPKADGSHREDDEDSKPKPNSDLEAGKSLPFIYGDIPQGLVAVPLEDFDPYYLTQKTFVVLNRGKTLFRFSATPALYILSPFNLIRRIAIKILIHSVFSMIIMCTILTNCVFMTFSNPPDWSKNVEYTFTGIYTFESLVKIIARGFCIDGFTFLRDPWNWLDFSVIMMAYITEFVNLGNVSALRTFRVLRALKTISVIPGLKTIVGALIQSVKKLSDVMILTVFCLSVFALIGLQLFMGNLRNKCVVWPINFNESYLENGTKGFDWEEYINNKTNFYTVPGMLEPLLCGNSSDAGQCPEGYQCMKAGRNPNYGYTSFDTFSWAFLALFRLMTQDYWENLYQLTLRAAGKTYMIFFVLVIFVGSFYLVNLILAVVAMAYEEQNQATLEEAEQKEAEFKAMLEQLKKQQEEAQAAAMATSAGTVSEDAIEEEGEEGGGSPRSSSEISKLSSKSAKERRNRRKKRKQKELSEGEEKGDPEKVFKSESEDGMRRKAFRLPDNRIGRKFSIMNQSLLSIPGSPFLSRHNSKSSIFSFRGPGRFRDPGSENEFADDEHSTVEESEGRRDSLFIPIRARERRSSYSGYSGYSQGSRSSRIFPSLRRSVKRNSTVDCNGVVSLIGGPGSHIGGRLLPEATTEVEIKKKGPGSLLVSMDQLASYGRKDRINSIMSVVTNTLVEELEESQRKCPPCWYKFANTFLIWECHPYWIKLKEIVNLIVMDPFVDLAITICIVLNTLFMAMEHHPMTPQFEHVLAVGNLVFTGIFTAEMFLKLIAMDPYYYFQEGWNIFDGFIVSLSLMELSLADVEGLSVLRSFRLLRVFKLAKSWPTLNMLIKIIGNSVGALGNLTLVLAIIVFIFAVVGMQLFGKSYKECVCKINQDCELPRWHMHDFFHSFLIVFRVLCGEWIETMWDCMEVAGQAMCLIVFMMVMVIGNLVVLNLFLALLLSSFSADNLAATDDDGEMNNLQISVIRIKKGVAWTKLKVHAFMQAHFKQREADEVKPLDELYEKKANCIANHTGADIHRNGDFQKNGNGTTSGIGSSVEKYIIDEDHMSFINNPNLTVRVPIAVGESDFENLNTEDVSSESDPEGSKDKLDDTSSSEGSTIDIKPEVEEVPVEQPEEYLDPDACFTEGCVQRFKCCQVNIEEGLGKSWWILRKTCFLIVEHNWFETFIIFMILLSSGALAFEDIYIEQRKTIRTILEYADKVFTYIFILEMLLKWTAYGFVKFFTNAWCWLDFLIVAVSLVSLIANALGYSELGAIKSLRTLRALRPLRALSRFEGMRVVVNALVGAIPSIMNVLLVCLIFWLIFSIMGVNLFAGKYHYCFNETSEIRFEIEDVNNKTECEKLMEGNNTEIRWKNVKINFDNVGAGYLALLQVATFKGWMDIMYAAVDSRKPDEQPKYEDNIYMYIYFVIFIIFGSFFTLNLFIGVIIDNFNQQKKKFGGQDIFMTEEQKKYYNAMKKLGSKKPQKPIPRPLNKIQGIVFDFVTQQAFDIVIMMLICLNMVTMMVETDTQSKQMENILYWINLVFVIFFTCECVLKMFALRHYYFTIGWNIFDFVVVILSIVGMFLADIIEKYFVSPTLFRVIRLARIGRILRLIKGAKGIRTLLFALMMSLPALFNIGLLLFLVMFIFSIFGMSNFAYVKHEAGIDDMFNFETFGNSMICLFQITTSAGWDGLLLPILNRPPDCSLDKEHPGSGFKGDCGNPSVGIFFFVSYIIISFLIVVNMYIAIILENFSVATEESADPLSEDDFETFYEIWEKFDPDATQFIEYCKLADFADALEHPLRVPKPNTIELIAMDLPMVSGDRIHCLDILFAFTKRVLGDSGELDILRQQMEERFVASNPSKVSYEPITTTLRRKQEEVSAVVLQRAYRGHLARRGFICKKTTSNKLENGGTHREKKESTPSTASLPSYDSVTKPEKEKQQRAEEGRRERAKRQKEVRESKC
T1 sequence (Q12809 whole entry): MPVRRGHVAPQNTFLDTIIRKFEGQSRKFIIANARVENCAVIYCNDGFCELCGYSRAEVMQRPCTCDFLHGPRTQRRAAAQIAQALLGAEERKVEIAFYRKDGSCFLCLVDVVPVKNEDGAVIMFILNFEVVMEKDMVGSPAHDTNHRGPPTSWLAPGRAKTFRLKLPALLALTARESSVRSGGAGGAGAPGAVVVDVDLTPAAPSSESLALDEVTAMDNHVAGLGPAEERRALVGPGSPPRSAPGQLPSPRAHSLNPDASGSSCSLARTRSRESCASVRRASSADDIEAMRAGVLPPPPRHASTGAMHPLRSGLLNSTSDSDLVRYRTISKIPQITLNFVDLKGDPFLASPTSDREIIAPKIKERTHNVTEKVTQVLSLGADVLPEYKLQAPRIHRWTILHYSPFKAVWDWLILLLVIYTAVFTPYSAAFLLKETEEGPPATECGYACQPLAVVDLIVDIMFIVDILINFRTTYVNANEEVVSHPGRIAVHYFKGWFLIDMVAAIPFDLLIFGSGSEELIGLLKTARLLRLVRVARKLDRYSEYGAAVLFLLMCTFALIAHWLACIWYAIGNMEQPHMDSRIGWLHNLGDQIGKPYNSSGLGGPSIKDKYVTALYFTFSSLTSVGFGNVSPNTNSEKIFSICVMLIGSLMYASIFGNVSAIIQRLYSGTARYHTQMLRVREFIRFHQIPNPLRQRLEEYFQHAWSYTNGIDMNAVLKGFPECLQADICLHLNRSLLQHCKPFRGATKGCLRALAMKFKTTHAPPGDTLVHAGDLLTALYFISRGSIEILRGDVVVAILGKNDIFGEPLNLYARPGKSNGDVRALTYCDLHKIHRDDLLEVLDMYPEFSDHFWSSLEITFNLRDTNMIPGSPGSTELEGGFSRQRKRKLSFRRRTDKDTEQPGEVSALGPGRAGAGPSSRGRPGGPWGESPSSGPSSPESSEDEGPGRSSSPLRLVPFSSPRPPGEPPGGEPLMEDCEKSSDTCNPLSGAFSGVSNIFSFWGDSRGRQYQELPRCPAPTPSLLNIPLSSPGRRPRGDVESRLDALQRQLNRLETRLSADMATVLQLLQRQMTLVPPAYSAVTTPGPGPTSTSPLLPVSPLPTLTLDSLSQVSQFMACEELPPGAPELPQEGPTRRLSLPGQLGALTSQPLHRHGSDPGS

With `CCC(CO)NCCOc1c(C)cccc1Cl` (stereo not shown) [Compound 4, R,S-2-((2-(2-chloro-6-methylphenoxy)ethyl)amino)butan-1-ol] the “Rotarod TD50” value (mice [1]; female mice) was 40.11 (36.49–42.98) mg/kg and the “Rotarod TD50” value (mice [1]; mice) was 54.99 (52.95–56.94) mg/kg.

For `CCC(CO)NCCOc1c(C)cccc1Cl` (stereo not shown) [KM-408, R,S-2-((2-(2-chloro-6-methylphenoxy)ethyl)amino)butan-1-ol hydrochloride], the activity at 100 µM (hERG) was 26.1%, the TD50 [2] was 64.3 mg/kg and the “effect on acetic acid-induced writhing” value (mice [3]) was “not significantly effective”. For the same molecule, the “Inhibition of pain reaction” value (guinea pigs; 0.125%, 30 min) was 33.3* %, the “Inhibition of pain reaction” value (guinea pigs; 0.125%, 60 min) was 38.9* % and the “Inhibition of pain reaction” value (guinea pigs; 0.125%, 120 min) was 33.3* %. The “Inhibition of pain reaction” value (guinea pigs; 0.5%, 30 min) was 93.3*** %, the “Inhibition of pain reaction” value (guinea pigs; 0.5%, 60 min) was 81.2*** % and the “Inhibition of pain reaction” value (guinea pigs; 0.5%, 120 min) was 66.7*** %. For the same molecule, the “Inhibition of pain reaction” value (guinea pigs; 0.5%, 240 min) was 20.0%, the “Inhibition of pain reaction” value (guinea pigs; […], 30 min) was 81.2*** % and the “Inhibition of pain reaction” value (guinea pigs; […], 60 min) was 64.7** %. For the same molecule, the “Inhibition of pain reaction” value (guinea pigs; […], 120 min) was 70.6*** %, the “Inhibition of pain reaction” value (guinea pigs; […], 240 min) was 33.3* % and the “infiltration anesthesia: active at” value (guinea pigs; guinea pigs) was 0.125%. It also gave an LD50 at 24 h (Acute toxicity (LD50); mouse, mice) of 19.8 mg/kg, an LD50 at 72 h (Acute toxicity (LD50); mouse, mice) of 246 mg/kg and an LD50 at 24 h (Acute toxicity (LD50); rat, rats) of 22.6 mg/kg. For the same molecule, the LD50 at 72 h (Acute toxicity (LD50); rat, rats) was 670 mg/kg, the viability at 24 h, 250 µM (MTT assay) was 81% and the “impact on proliferation (crystal violet)” value (murine astrocytes) was “did not exhibit cytotoxic activity and a notable impact on proliferation”. The t0.5λz (Tissue distribution; Brain) was 28.56 min, the t0.5λz (Tissue distribution; Heart) was 41.30 min and the t0.5λz (Tissue distribution; Kidneys) was 16.23 min. The t0.5λz (Tissue distribution; Liver) was 41.99 min, the t0.5λz (Tissue distribution; Lungs) was 30.84 min and the “concentration in rat brain (approximated)” value (Tissue distribution; 2 h after iv, tissue density 1 g/mL assumed) was ~2.2*10^–7 M. It also gave a concentration at 2 h (Tissue distribution; male, Wistar, rat, brain, 5 mg/kg, 2 h after iv administration) of 64.9 ng/g, a Cmax (Tissue distribution; male, Wistar, rat, Brain) of 1770 ng/g and an MRT (Tissue distribution; male, Wistar, rat, Brain) of 37.9 min. For the same molecule, the Tmax (Tissue distribution; male, Wistar, rat, Brain) was 5 min, the Kp (Tissue distribution; male, Wistar, rat, Brain) was 0.83 and the k el (Tissue distribution; male, Wistar, rat, Brain) was 0.0004 s⁻¹. It also gave a Cmax (Tissue distribution; male, Wistar, rat, Heart) of 494 ng/g, an MRT (Tissue distribution; male, Wistar, rat, Heart) of 58.5 min and a Tmax (Tissue distribution; male, Wistar, rat, Heart) of 15 min. It also gave a Kp (Tissue distribution; male, Wistar, rat, Heart) of 0.38, a k el (Tissue distribution; male, Wistar, rat, Heart) of 0.000283 s⁻¹ and a Cmax (Tissue distribution; male, Wistar, rat, Kidneys) of 1950 ng/g. The MRT (Tissue distribution; male, Wistar, rat, Kidneys) was 25.3 min, the Tmax (Tissue distribution; male, Wistar, rat, Kidneys) was 5 min and the Kp (Tissue distribution; male, Wistar, rat, Kidneys) was 0.62. The k el (Tissue distribution; male, Wistar, rat, Kidneys) was 0.000717 s⁻¹, the Cmax (Tissue distribution; male, Wistar, rat, Liver) was 161 ng/g and the MRT (Tissue distribution; male, Wistar, rat, Liver) was 113 min. The Tmax (Tissue distribution; male, Wistar, rat, Liver) was 5 min, the Kp (Tissue distribution; male, Wistar, rat, Liver) was 0.14 and the k el (Tissue distribution; male, Wistar, rat, Liver) was 0.000283 s⁻¹. The Cmax (Tissue distribution; male, Wistar, rat, Lungs) was 4350 ng/g, the MRT (Tissue distribution; male, Wistar, rat, Lungs) was 46.9 min and the Tmax (Tissue distribution; male, Wistar, rat, Lungs) was 5 min. For the same molecule, the Kp (Tissue distribution; male, Wistar, rat, Lungs) was 1.76, the k el (Tissue distribution; male, Wistar, rat, Lungs) was 0.000383 s⁻¹ and the IC50 (hNav1.2 sodium channel; 10 Hz) was 15.6 µM. For the same molecule, the IC50 (hNav1.2 sodium channel; Inactivated state) was < 10 µM, the IC50 (hNav1.2 sodium channel; Tonic block) was 48.7 µM and the IC50 (hNav1.4 sodium channel; 10 Hz) was 8.17 µM. For the same molecule, the IC50 (hNav1.4 sodium channel; Inactivated state) was < 10 µM, the IC50 (hNav1.4 sodium channel; Tonic block) was 68 µM and the IC50 (hNav1.6 sodium channel; 10 Hz) was 20.5 µM. The IC50 (hNav1.6 sodium channel; Inactivated state) was < 10 µM and the IC50 (hNav1.6 sodium channel; Tonic block) was 60.1 µM.
